Test results taken from patent publication US20260007634A1, “PHARMACEUTICAL COMPOSITIONS FOR THE TREATMENT OF ALLERGIC DISEASES” (KINKI UNIVERSITY, priority 2022, published 2026).

Key:
Assay type in all cases: in vivo, mouse
IL-17 [1] = assay: Serum IL-17 ELISA, bronchial asthma mice; details: OVA bronchial asthma; serum day 28; oral 10 mg/kg (dexamethasone 2 mg/kg); control 80, vehicle 898
Procedure: (§1) A 0.2 mL dose of 50 μg ovalbumin (OVA) and 2 mg Alum mixture was administered to 6-week-old female Balb/c mice (Japan SLC Inc.) (day 0 of the example). Alum was used as an adjuvant. Seven days later and 14 days later, the Balb/c mice were immunized again with 0.2 mL injections of the above mixture. Starting on day 20, mice were orally treated with 10 mg/kg of norathyriol, 10 mg/kg of mangiferin 8a, 10 mg/kg of tofacitinib (JAK inhibitor), 2 mg/kg of dexamethasone (steroid) and 10 mg/kg of olopatadine (antihistamine) daily for 8 consecutive days. Starting on day 21, 400 μg OVA was administered intranasally, and cough was measured on day 27. Note that tofacitinib, dexamethasone, and olopatadine are currently in clinical use in allergic rhinitis and were used as control drugs in this example.
Serum was collected from day 28 mice in Examples 14, and IL-17 production was measured by enzyme-linked immunosorbent assay (ELISA). This assay was performed using a mouse IL-17 ELISA kit (R&D).

IL-17 [2] = assay: Serum IL-17 ELISA, allergic rhinitis mice; details: OVA allergic rhinitis; serum day 28; oral 10 mg/kg (dexamethasone 2 mg/kg); control 204, vehicle 945
Procedure: as §1, with “nose-scratching behavior” for “cough”
Serum was collected from day 28 mice in Examples 6 and 7, and IL-17 production was measured by enzyme-linked immunosorbent assay (ELISA). This assay was performed using a mouse IL-17 ELISA kit (R&D).

IgE antibody = assay: Serum IgE antibody ELISA, food allergy mice; details: OVA food allergy; serum day 28; oral 10 mg/kg (dexamethasone 2 mg/kg); control 56, vehicle 124
Procedure: (§2) A 0.2 mL dose of 10 μg ovalbumin (OVA) and 1 mg Alum mixture was administered to 6-week-old female Balb/c mice (Japan SLC Inc.) (day 0 of the example). Alum was used as an adjuvant. Seven days later, the Balb/c mice were immunized again with a 0.2 mL injection of the above mixture. Starting on day 14, mice were orally treated with 10 mg/kg of norathyriol, 10 mg/kg of mangiferin 8a, 10 mg/kg of tofacitinib (JAK inhibitor), 2 mg/kg of dexamethasone (steroid) and 10 mg/kg of olopatadine (antihistamine) daily for 14 consecutive days. […]
Serum was collected from day 28 mice in Examples 21, and IgE antibody production was measured by enzyme-linked immunosorbent assay (ELISA). This assay was performed using a mouse IgE antibody ELISA kit (R&D).

OVA-IgE antibody = assay: Serum OVA-IgE antibody ELISA, bronchial asthma mice; details: serum day 28, oral 10 mg/kg (dexamethasone 2 mg/kg), control 2.4, vehicle 66
Procedure: as §1
Serum was collected from day 28 mice in Examples 14, and OVA-IgE antibody production was measured by enzyme-linked immunosorbent assay (ELISA). This assay was performed using a mouse OVA-IgE antibody ELISAkit (FUJIFILM Wako).

IL-5 = assay: Serum IL-5 ELISA, food allergy mice; details: OVA food allergy; serum day 28; oral 10 mg/kg (dexamethasone 2 mg/kg); control 135, vehicle 916
Procedure: as §2
Serum was collected from day 28 mice in Examples 21, and IL-5 production was measured by enzyme-linked immunosorbent assay (ELISA). This assay was performed using a mouse IL-5 ELISA kit (R&D).

[3] = tested on: Balb/c mice with ovalbumin-induced allergic rhinitis; assay: Nose scratching behavior, ovalbumin-induced allergic rhinitis mice; details: OVA allergic rhinitis; oral daily 8 days from day 20, 10 mg/kg (dexamethasone 2 mg/kg); measured day 27; vs vehicle group
Procedure: as §1, with “nose-scratching behavior” for “cough”
The group that was just immunized with OVA is called the subject group, the one that received norathyriol is called the norathyriol group, the one that received mangiferin 8a is called the mangiferin 8a group, the one that received tofacitinib is called the tofacitinib group, the one that received dexamethasone is called the dexamethasone group, and the one that received olopatadine is called the olopatadine group. Each group consisted of five animals.

BAFF = assay: Serum BAFF ELISA, allergic rhinitis mice; details: OVA allergic rhinitis; serum day 28; oral 10 mg/kg (dexamethasone 2 mg/kg); control 157, vehicle 1450
Procedure: as §1, with “nose-scratching behavior” for “cough”
Serum was collected from day 28 mice in Examples 6 and 7, and BAFF production was measured by enzyme-linked immunosorbent assay (ELISA). This assay was performed using a mouse BAFF ELISA kit (R&D).

IL-17 [4] = assay: Serum IL-17 ELISA, food allergy mice; details: OVA food allergy; serum day 28; oral 10 mg/kg (dexamethasone 2 mg/kg); control 98, vehicle 875
Procedure: A 0.2 mL dose of 10 μg ovalbumin (OVA) and 1 mg Alum mixture was administered to 6-week-old female Balb/c mice (Japan SLC Inc.) (day 0 of the example). Alum was used as an adjuvant. Seven days later, the Balb/c mice were immunized again with a 0.2 mL injection of the above mixture. Starting on day 14, mice were orally treated with 10 mg/kg of norathyriol, 10 mg/kg of mangiferin 8a, 10 mg/kg of tofacitinib (JAK inhibitor), 2 mg/kg of dexamethasone (steroid) and 10 mg/kg of olopatadine (antihistamine) daily for 14 consecutive days. Starting on day 14, 10 mg OVA was administered orally every other day […], and the frequency of diarrhea was measured after the final administration on day 28. Note that tofacitinib, dexamethasone, and olopatadine are currently in clinical use in food allergy and were used as control drugs in this example.
Serum was collected from day 28 mice in Examples 21, and IL-17 production was measured by enzyme-linked immunosorbent assay (ELISA). This assay was performed using a mouse IL-17 ELISA kit (R&D).

SMILES | amount of IL-17 (IL-17 [1]) [pg/mL] | amount of IL-17 (IL-17 [2]) [pg/mL] | amount of IgE antibody (IgE antibody) [ng/mL] | amount of OVA-IgE antibody (OVA-IgE antibody) [U/mL] | amount of IL-5 (IL-5) [pg/mL] | number of nose scratches [3] | amount of BAFF (BAFF) [pg/mL] | amount of IL-17 (IL-17 [4]) [pg/mL]
CN(C)CC/C=C1/c2ccccc2COc2ccc(CC(=O)O)cc21 [olopatadine] | 848 | 839 | 111 | 69 | 832 | significantly decreased the number of nose scratches | 1691 | 721
C[C@@H]1C[C@H]2[C@@H]3CCC4=CC(=O)C=C[C@]4(C)[C@@]3(F)[C@@H](O)C[C@]2(C)[C@@]1(O)C(=O)CO [dexamethasone] | 257 | 227 | 36 | 18 | 249 | – | 266 | 216
O=c1c2cc(O)c(O)cc2oc2cc(O)cc(O)c12 [norathyriol, 1,3,6,7-tetrahydroxyxanthone] | 530 | 583 | 84 | 28 | 475 | significantly decreased the number of nose scratches | 629 | 451
C[C@@H]1CCN(C(=O)CC#N)C[C@@H]1N(C)c1ncnc2[nH]ccc12 [tofacitinib] | 844 | 892 | 106 | 50 | 791 | significantly decreased the number of nose scratches | 1041 | 741
